# Test results as given in PubChem BioAssay (NCI).
# Several values for one entry are separate records, joined by “and”; a condition that tells them apart may be missing. Equal entries are not always repeated.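 Each compound was tested at five concentrations against cells in 96-well plates for 48 hours. GI50: concentration for 50% inhibition of growth. TGI is the concentration that stops growth completely.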
# How the values were obtained:
# Assay in all cases: DTP human tumour cell line panel, 48 h
# [1] = test system: NCI-H226 lung
# [2] = test system: ACHN renal
# [3] = test system: M14 melanoma
# [4] = test system: CAKI-1 renal
# [5] = test system: A549 NSCLC
# [6] = test system: HOP-92 NSCLC
# [7] = test system: SW-620 colon
# [8] = test system: COLO 205 colon
# [9] = test system: SNB-75 CNS
# [10] = test system: SF-539 CNS
Structure (SMILES),GI50 [1] [µM],TGI [1],GI50 [2] [µM],TGI [2],GI50 [3] [µM],TGI [3],GI50 [4] [µM],TGI [4],GI50 [5] [µM],TGI [5],GI50 [6] [µM],TGI [6],GI50 [7] [µM],TGI [7],GI50 [8] [µM],TGI [8],GI50 [9] [µM],TGI [9] [µM],GI50 [10] [µM],TGI [10]
CC1=C/C(O)CC(=O)Cc2nc(co2)C(=O)N2CCC=C2C(=O)OC(C(C)C)C(C)/C=C\C(=O)NC/C=C\1 (centres undefined),> 46.3,> 100 µM,31.8,> 100 µM and 29.7 µM,23,> 100 µM and 42.3 µM,44.4,> 84.1 µM and 70.1 µM,25.1,> 100 µM,18,> 86.2 µM,10.5,35 µM and 37.7 µM,3.09,15 µM and 38.9 µM,21.4,> 100,10.9,46.3 µM and > 100 µM
CN(C)CCC(=O)N1CCc2c([nH]c3ccccc23)C1c1cccnc1 (centres undefined),,,,> 100 µM,,> 100 µM,,> 100 µM,,> 100 µM,,> 100 µM,,> 100 µM,,,,> 100,,> 100 µM
CCOC(=O)Nc1ccc(C(=O)/C=C/c2ccccc2)cc1,19.8,68.6 µM,22.2,52.3 µM,19.1,44.3 µM,79,> 100 µM,30.1,> 100 µM,11.2,66.5 µM,19.2,> 100 µM,20.3,47.6 µM,31.6,> 100,20.2,46.3 µM
COc1cc2oc(-c3cccc(C(=O)Nc4ccc(C)cc4)c3)cc(=O)c2c(OC)c1OC,6.65,> 100 µM,2.69,> 100 µM,0.503,2.23 µM,0.315,3.22 µM,3.86,> 100 µM,1.55,5.46 µM,4.73,> 100 µM,1.05,2.6 µM,1.16,5.38,2.58,10.5 µM
O=C1[C@@H]2C(c3ccncc3)=NO[C@@H]2C(=O)N1c1ccc(Cc2ccc(N3C(=O)[C@H]4C(c5ccncc5)=NO[C@H]4C3=O)cc2)cc1,,> 100 µM,,> 100 µM,,> 100 µM,,> 100 µM,,> 100 µM,,> 100 µM,,> 100 µM,,> 100 µM,,> 100,,> 100 µM
CN(C)CCCN1c2ccc(O)cc2Sc2ccc(Cl)cc21,,24.7 µM,,28.1 µM,,19.7 µM,,16 µM,,28.6 µM,,17.2 µM,,39.6 µM,,39.3 µM,,21,,28.7 µM
Cc1ccc(NC(=O)N2CCCCC2)cc1[N+](=O)[O-],> 100,> 100 µM,> 100,> 100 µM,> 100,> 100 µM,> 100,> 100 µM,> 100,> 100 µM,> 100,> 100 µM,> 100,> 100 µM,> 100,> 100 µM,> 100,> 100,> 100,> 100 µM
CC(C)c1ccc(/C=N/N=C(N)N)cc1,12.2,26.3 µM,11.7,25.4 µM,2.02,4.2 µM,6.31,22 µM,4.91,18.8 µM,1.35,7.27 µM,2.9,11.6 µM,1.72,3.33 µM,5.68,26,11.6,25.3 µM
CNC(=O)/C(=C/c1ccc(OC)cc1)c1cc(OC)c(OC)c(OC)c1,,> 53.7 µM,,> 100 µM,,> 34.6 µM,,> 100 µM,,> 100 µM,,> 60.2 µM,,> 100 µM,,7.36 µM,,4.4,,3.58 µM
Cc1ccc(S(=O)(=O)N[C@@H](Cc2ccccc2)C(=O)CCl)cc1,,,13,28.1 µM,19.9,63.1 µM,16.7,34.7 µM,42.6,> 100 µM,2.19,12 µM,10.2,59.4 µM,19.9,52.3 µM,16.7,35.8,2.26,5.68 µM
COC(=O)[C@@H]1[C@H](O)[C@H](C)[C@H](O)[C@H](C)/C=C\C=C(C)C(=O)Nc2c(C)c(OC(C)=O)c3c(c2O)C(=O)C(C)=C2OCOC(=C23)C(C)=C[C@@](C)(O)[C@H](O)[C@@H](C)[C@H]1OC(C)=O,,> 100 µM,,> 100 µM,,> 100 µM,,,,,,> 100 µM,,> 100 µM,,,,> 100,,
Nc1cc(N)cc(Cc2ccccc2)c1,,> 100 µM,,> 100 µM,,> 100 µM,,> 100 µM,,> 100 µM,,> 100 µM,,> 100 µM,,> 100 µM,,,,> 100 µM
Cc1cccc2cc3cccc(C(=O)NCCN(C)C)c3nc12,,0.343 µM,,,,2.43 µM,,0.327 µM,,,,1.38 µM,,10.5 µM,,1.75 µM,,0.825,,1.61 µM
COc1ccccc1Nc1nc2ccccc2c2occc12,,,10.6,24.8 µM,17.3,40.4 µM,18,> 50 µM,14.6,41.4 µM,24.1,> 50 µM,22.6,> 50 µM,12.6,> 50 µM,,,9.76,21.5 µM
CCOC(=O)C(O)Cc1cnc2ccccc2n1 (centres undefined),,,,> 100 µM,,> 100 µM,,> 100 µM,,> 100 µM,,> 100 µM,,> 100 µM,,> 100 µM,,> 100,,> 100 µM
Cc1nc2ccccc2c(/C=C/c2ccccc2)c1C(=O)/C=C/c1ccc(Cl)cc1,,,,,,,,,,,,,1.71,5.72 µM,,,,,,
COc1ccc(C(=O)C/C(=N/NC(N)=S)C(=O)Nc2ccccc2)cc1,,> 100 µM,,> 100 µM,,> 100 µM,,> 100 µM,,> 100 µM,,,,> 100 µM,,> 100 µM,,> 100,,> 100 µM
COc1cccc2c1C(=O)c1c(O)c3c(c(O)c1C2=O)C[C@@](O)(C(C)=O)C[C@@H]3OC1CC(O)C(O)C(C)O1 (some centres undefined),,4.77 µM and 1.58 µM,0.397,2.41 µM and 2.85 µM,2.7,18 µM,,5.57 µM and 4.94 µM,,6.31 µM and 10.4 µM,,9.67 µM and 18.8 µM,,35.5 µM,,27 µM,,,,9.15 µM and 10.2 µM

Structure (SMILES),GI50 [1] [µM],TGI [1],GI50 [2] [µM],TGI [2],GI50 [3] [µM],TGI [3],GI50 [4] [µM],TGI [4],GI50 [5] [µM],TGI [5],GI50 [6] [µM],TGI [6],GI50 [7] [µM],TGI [7],GI50 [8] [µM],TGI [8],GI50 [9] [µM],TGI [9] [µM],GI50 [10] [µM],TGI [10]
NC(=NCCO)c1ccc(N2CCCN(c3ccc(C(N)=NCCO)cc3)CC2)cc1,> 100,> 100 µM,> 100,> 100 µM,> 100,> 100 µM,> 100,> 100 µM,98.3,> 100 µM,,,,,> 100,> 100 µM,> 100,> 100,,
CN(C)CCC(/C=C/c1ccccc1)=N\Nc1ccc(Cl)cc1,,,,5.15 µM,,12.5 µM,,,,7.34 µM,,8.82 µM,,14.7 µM,,16.5 µM,,15.6,,5.32 µM
CCOC(=O)C1=C(C)N(NC(=O)OC)C2(N)N(NC(=O)OC)C(C)=C(C(=O)OCC)C12C#N (centres undefined),,> 100 µM,,> 100 µM,,> 100 µM,,> 100 µM,,> 100 µM,,,,> 100 µM,,,,> 100,,> 100 µM
CSC(=NC#N)S/C=C/C(=O)c1cccc2ccccc12,,,28.3,82 µM,29.9,> 100 µM,14.7,33.9 µM,29.3,> 100 µM,19.3,66.6 µM,36.9,> 100 µM,34.3,> 100 µM,,,17.6,68.2 µM
C[C@@H]1CC[C@@H]2[C@@H]1[C@H](OC(=O)c1ccc3ccccc3c1)[C@]1(C3CCCCC3)C[C@@H](OC(=O)CO)[C@@]2(C)O1,11.6,26.2 µM,,,13.2,30.2 µM,0.0391,10.9 µM,8.12,21.7 µM,3.15,15.4 µM,13,30.4 µM,11.2,24.6 µM,0.546,18.8,13.7,27.9 µM
O=[N+]([O-])c1ccc2nc3ccscc-3c2c1,,> 100 µM,,> 100 µM,,32.4 µM,,26.2 µM,,89.9 µM,,25.7 µM,,> 100 µM,,34.8 µM,,,,50.4 µM
C/C=C/C=C/CCCCCCCCCCCCC[C@]1(OC)C=CC(CC(=O)OC)OO1 (some centres undefined),,,16.6,31.4 µM,,31.9 µM,17.1,31.1 µM,35,> 100 µM,,,16.7,33 µM,18.9,36.1 µM,,31.2,,35.3 µM
C=C[Si](C)(C)COC(=O)/C(C#N)=C/C=C/c1ccccc1,,> 100 µM,,> 100 µM,,> 100 µM,,,,> 100 µM,,> 100 µM,,> 100 µM,,> 100 µM,,94,,> 100 µM
CCCC(CCC)Oc1ccc(CCCC2=C(O)c3ccccc3C(=O)C2=O)cc1,4.24,20.8 µM,6.69,19 µM,9.35,22.2 µM,2.46,8.66 µM,4.11,22.4 µM,,,4.61,17 µM,6.7,32.3 µM,11.3,26.3,5.43,18.7 µM
COC(=O)c1ccc(NC(N)=NCC(C)(C)COc2ccc(C(F)(F)F)cc2)nc1,,,1.59,2.93 µM,,,,,1.63,3.17 µM,1.23,2.57 µM,,,1.63,3.23 µM,1.57,3.27,1.71,3.13 µM
CC1(C)Cc2nnsc2C2=C1C(=O)CCS2,,,,> 100 µM,,> 100 µM,,> 100 µM,,> 100 µM,,> 100 µM,,> 100 µM,,> 100 µM,,> 100,,> 100 µM
Cc1cc(S(=O)(=O)Nc2nc3ccccc3[nH]2)c(SCc2ccccc2)cc1Cl,43.8,> 100 µM,32.8,> 100 µM,> 100,> 100 µM,2.1,6.1 µM,> 100,> 100 µM,62.2,> 100 µM,> 100,> 100 µM,> 100,> 100 µM,,,19.8,52.8 µM
C=C(CN(C)Cc1ccccc1)c1ccc(C(=O)Nc2ccccc2N)cc1,,,,,13.4,41.2 µM,3.43,14.8 µM,5.19,19.1 µM,3.36,24.5 µM,6.08,> 50 µM,7.72,17.6 µM,,,2.02,12.1 µM
COc1ccc(C2N3CCCCC3[C@@H]3c4[nH]c5ccccc5c4CCN23)c(OC)c1 (some centres undefined),,,,55.2 µM,,30.5 µM,,> 100 µM,,> 100 µM,,> 100 µM,,> 100 µM,,43.2 µM,,,,35.2 µM
O=C1C(CO)=C[C@@H](O)[C@H]2O[C@@H]12,,> 100 µM,,> 100 µM,,> 100 µM,,> 100 µM,,> 100 µM,,> 100 µM,,> 100 µM,,> 100 µM,,> 100,,
Clc1ccc(-c2nc(C(Cl)Cl)nc3cc(-c4ccccc4)nn23)cc1,> 50,> 50 µM,,,,,,,0.875,2.34 µM,1.25,> 50 µM,1.01,> 50 µM,,,0.957,> 50,2.34,> 50 µM
NC(=S)N/N=C/c1ccc(OC(=O)COc2ccccc2)cn1,20.3,64 µM,3.65,> 100 µM,3.57,12.1 µM,4.01,> 100 µM,30,> 100 µM,,,5.02,> 100 µM,33.3,> 100 µM,10.4,> 100,2.94,10.9 µM
